Test results reported in patent publication US20070259819A1, “Cosmetic Use of at Least Natural Tetrapeptide Ac-Ser-Asp-Lys-Pro or One of Its Analogs as a Skin Anti-Aging and Restructuring Agent” (Centre National De La Recherche Scientfique (CNRS), priority 2004, published 2007).
“Also recorded” adds a separate entry of the source. Peptide text beside a SMILES is read from it.

What was measured:
Type in all cases: cell-based
human skin explants = experiment: General morphology of human skin explants (histology); details: topical daily
Experimental: (§1) This study was conducted on thirty six human skin explants obtained from breast plastic surgery.
(§2) All the explants were maintained in a state of survival in a culture medium for eight days. AcSDKP at a concentration of 10^−5 M or 10^−8 M in physiological serum was applied to the explants by topical route every day for one week. On days 2, 4, 6 and 8, three explants from each batch (control, +AcSDKP 10^−5 M+ AcSDKP 10^−8 M) were removed and prepared for histological studies. General morphology was examined and an evaluation of the expression of basal keratin (CK14), undifferentiated keratin (CK19), collagen III, collagen IV, fibronectin and glycosaminoglycan without an acid group was performed.

basal keratin (CK14) = experiment: Immunolabelling of keratin 14 in human skin explants
Experimental: as §1, §2

[1] = test system: undifferentiated keratin (CK19); experiment: Immunolabelling of keratin 19 in human skin explants
Experimental: as §1, §2

collagen III = experiment: Immunolabelling of collagen III in human skin explants
Experimental: as §1, §2

collagen IV = experiment: Immunolabelling of collagen IV in human skin explants; details: D6 and D8
Experimental: as §1, §2

fibronectin = experiment: Immunolabelling of fibronectin in human skin explants
Experimental: as §1, §2

[2] = test system: glycosaminoglycan without an acid group; experiment: P.A.S. Alcian blue staining of glycosaminoglycans without acid groups in human skin explants
Experimental: as §1, §2
This effect, clearly visible at D6 and D8, is characterised by a PAS positive increase in the number of fibroblasts in the papillary dermis, especially in the band situated along the dermo-epidermal junction and by increased levels of GAGs in these fibroblasts.

[3] = topical daily, human skin explants, immunolabelling

CC(=O)N[C@@H](CO)C(=O)N[C@@H](CC(=O)O)C(=O)N[C@@H](CCCCN)C(=O)N1CCC[C@H]1C(=O)O [AcSDKP, CH3CO-Ser-Asp-Lys-Pro] (Ac-SDKP-OH)
General morphology: epidermal structure (human skin explants; 10^-5 M and 10^-8 M, human skin explants): triggers stimulation of the epidermal structure as of D6 of treatment
Increase in epidermal thickness (human skin explants; 10^-5 M compared with 10^-8 M): increase in epidermal thickness is greater
Keratin 14 (CK14) restructuring effect (basal keratin (CK14); 10^-5 M compared with 10^-8 M): restructuring effect is greater
Keratin 14 (CK14) expression (basal keratin (CK14); [3]): gradual increase in the levels of this protein in the basal and superbasal position as of D4 of treatment
Keratin 19 (CK19) expression ([1]; 10^-5 M and 10^-8 M, topical daily, immunolabelling): overexpression of the skin's dermal attachments as of D6 of treatment
Keratin 19 (CK19) expression ([1]; 10^-5 M compared with 10^-8 M): less marked effect
Collagen III expression (collagen III; 10^-5 M, D8): very clear overexpression of collagen III in the papillary and reticular dermis
Collagen III levels (collagen III; 10^-5 M, six days of treatment): very marked increase in collagen III levels in the papillary dermis along the dermo-epidermal junction
Collagen III level (collagen III; 10^-8 M, D8): level of collagen III increases along the dermo-epidermal junction and forms a thicker collagen band
Collagen III expression along the dermo-epidermal junction (collagen III; 10^-8 M, six days of treatment, compared with 10^-5 M): less pronounced
Collagen IV levels in the basal membrane (collagen IV; 10^-5 M and 10^-8 M): less pronounced than that for type III collagen
Increase in collagen IV levels (collagen IV; 10^-5 M compared with 10^-8 M): higher
Fibronectin expression (fibronectin; 10^-5 M compared with 10^-8 M): greater activity
Fibronectin expression (fibronectin; [3]): fibronectin network is denser and has thicker fibres; also recorded: triggers overexpression of this protein along a dermo-epidermal junction as well as in the papillary and reticular dermis
Glycosaminoglycan (GAGs) levels ([2]; 10^-5 M and 10^-8 M, clearly visible at D6 and D8): significant increase in the levels of these compounds in the skin
Glycosaminoglycan (GAGs) expression ([2]; 10^-5 M compared with 10^-8 M): higher level of activity
